Reference: patent publication US12239654B2, “Compounds and methods for treating neurological and cardiovascular conditions” (Astrocyte Pharmaceuticals, Inc., priority 2016, dated 2025)
“Also recorded” adds a separate entry of the source.

What was measured:
[1] = test system: mice subjected to traumatic brain injury (TBI); assay: Traumatic brain injury (TBI) in mice, Western blot analysis for GFAP; type: in vivo, C57BL/6 mice; settings: for GFAP expression in brain (GFAP/actin, Western blot): 7 days post-injury, vs TBI untreated; for efficacy in the mouse TBI model: summary statement, FIG. 12
Experimental: Animals and traumatic brain injury (TBI): TBI was performed with a controlled closed skull injury model as described in […] al. 2012 (J. Neurotrauma 30, 55-66). Following the method described therein, a pneumatic impact device was used to generate a moderate TBI leaving the skull and dura matter intact. To achieve this, C57BL/6 mice were anesthetized with isoflurane (3% induction, 1% maintenance) in 100% oxygen. A body temperature of 37° C. was maintained using a temperature-controlled heated surgical table. A small midline incision was made on the scalp using aseptic surgical techniques. A 5 mm stainless steel disc was positioned on the skull and fixed using superglue on the right parietal bone between bregma and lamda over the somatosensory cortex. The mouse was then positioned on a stage directly under the pneumatic impact tip. […] Scalp incisions were closed using 4-0 nylon braided suture and antibiotic ointment applied to the incision. Mice were placed in a Thermo-Intensive Care Unit (Braintree Scientific model FV-1; 37° C.; 27% 02) and monitored until fully awake and moving freely. […] Western Blot Analysis for GFAP: At selected survival times, mice were anesthetized under isoflurane and sacrificed. The brain was removed and placed on ice for dissection into impacted and non-impacted brain hemispheres. […] The homogenate was transferred to a 2 mL tube and centrifuged at 1000 g for 10 minutes at 4° C. and the supernatant was collected and analyzed. Protein concentration was determined by the BCA assay using a 1:50 dilution. 100 μg of protein was removed as an aliquot for each sample and Laemmli buffer containing β-mercaptoethanol added and the sample placed in a heat block for 3 minutes at 95° C. Samples were loaded on a 12% gel and ran at 80 V for 20 minutes followed by 40 minutes at 130 V. Samples were transferred to nitrocellulose membrane at 100 V for 1 hour. The membrane was blocked with 5% milk in TBS-T for 30 minutes. GFAP (1:1000-Imgenex IMG-5083-A) was added and placed at 4° C. overnight. The membrane was washed with TBS-T three times for 10 minutes. Secondary antibody for GFAP (Donkey anti-rabbit HRP conjugated (ImmunoJackson Laboratories; 711-035-152; 1:20000) was applied at room temperature for 1 hour. The membranes were washed with TB S-T for 15 minutes (3 times) and developed using the Western Lightning Plus-ECL kit (PerkinElmer, Inc.) following manufacturer's directions.

mice subjected to stroke = assay: Photothrombosis-induced stroke in mice, TTC-stained brain infarction size; type: in vivo, C57Bl/6 mice; settings: for size of brain infarctions in mice pretreated with A3 receptor antagonist MRS1523: MRS1523 2 mg/kg ip at 0 and 2 hour, treatment within 30 minutes of clot formation; for size of brain infarctions in mice pretreated with A3 receptor antagonist MRS1523 / size of the brain infarction (TTC staining): 24 hours; for size of the brain infarction (TTC staining): photothrombotic stroke mice, vs vehicle; for efficacy in the mouse photothrombotic stroke model: summary statement
Experimental: Photothrombosis-induced Stroke: Photothrombosis was performed as described in Zheng et al 2010 (PloS One 5 (12): e14401). In brief, Rose Bengal is a fluorescent dye that when injected into the vasculature and excited, generates singlet oxygen that damages the endothelial wall and induces a local thrombosis (clot). Using this technique, mice were given a 0.1 mL tail-vein injection of sterilized Rose Bengal (RB, Sigma, U.S.A.) in artificial cerebral spinal fluid (aCSF). The RB concentration was 20 mg/mL. A cortical region was centered in the imaging field and illuminated with a green laser (543 nm, 5 mW) using a 0.8-NA 40× water-immersion objective (Nikon, Tokyo). The clot formation was monitored in real time until the targeted vessel or downstream capillaries were firmly occluded. Stable clots were subsequently identified by a non-fluorescent vessel segmentation ending with highly fluorescent regions. […] Treatments, MRS4322 (0.16 mg/kg; 0.5 μmol/kg) or MRS2365 (0.24 mg/kg; 0.5 μmol/kg) were introduced via intraperitoneal injections (i.p.). For experiments with A3 receptor antagonist MRS1523, mice were administered intraperitoneal injections (2 mg/kg) at the 0 and 2 hour timepoints to ensure receptor antagonism throughout the course of the study.
Animals and Photothrombosis-induced Stroke: Stroke was performed as described in Zheng et al 2010 (PloS One 5 (12): e14401). Female C57Bl/6 mice (4-6 months) were used in this study. From the methods of this manuscript: Mice were anesthetized at 3% isoflurane with 100% oxygen and subsequently maintained at 1% isoflurane through a nosecone. Depth of anesthesia was monitored and regulated according to vital signs, pinch withdrawal and eye blinks. Body temperature was maintained at 37° C. by a feedback-controlled heating pad (Gaymar T/Pump). Vital signs including oxygen saturation, respiratory rate, and heart rate were continuously monitored by using the MouseOx system (STARR Life Sciences). The hair on each mouse's head was trimmed and a small incision was made in the scalp to expose the skull. A custom-made stainless steel plate was glued to the skull with VetBond Tissue Adhesive (3M, St Paul, MN). A cranial thinned-skull imaging window was created over the right primary somatosensory cortex (˜1.5 mm posterior to Bregma and 2 mm lateral from midline) depending on the experiment. In brief, a large region of the skull was first thinned with the electric drill and then further thinned with a surgical blade. The final thickness of the thinned skull was approximately 50 μm. After the cranial imaging window was created, mice were transferred to microscope stage and used for photothrombosis or imaging experiments. For the repeat imaging experiments, the plate was carefully detached from the skull and the scalp was sutured (Ethicon 6-0 sild suture). After each experiment, the mice were either returned to cages until the next timepoint or sacrificed. All procedures were approved by the Institutional Animal Care and Use Committee (IACUC) at University of Texas Health Science Center at San Antonio. Thirty minutes following stroke or sham (uninjured), mice were treated with either vehicle (saline) or drugs (MRS4322, MRS2365, MRS5698 or Cl-IBMECA).
Post photothrombotic infarction evaluation. The size of cerebral infarcts was evaluated using 2,3,5-Triphenyltetrazolium chloride (TTC) staining as described in Zheng et al 2010 (PloS One 5 (12): e14401). In brief, RB-induced lesions in brain slices were stained with TTC. TTC is a colorless dye that stains healthy brain tissue red when reduced by the mitochondrial enzyme succinyl dehydrogenase (Bederson J B et al., 1986). The absence of staining in necrotic tissue is then used to define the area of a brain infarction. Mice were sacrificed by cervical dislocation, their brains removed and then placed in ice cold HBSS for 3 minutes. The brain was subsequently transferred to a brain mold (KOPF), sliced into 1 mm sections and immersed in 2% TTC (5 min) at 37° C. […]

[2] = TBI mice, treated 30 min post-TBI, approximately 0.5 μmol/kg
[3] = 0.5 μmol/kg ip within 30 minutes of clot formation

SMILES	GFAP expression in brain (GFAP/actin, Western blot) [1, 2]	GFAP levels in plasma relative to actin (Western blot) ([1]; TBI mice, treated 30 min post-TBI, approximately 0.5 μmol/kg, day 7, vs TBI untreated)	efficacy in the mouse TBI model [1]	size of brain infarctions in mice pretreated with A3 receptor antagonist MRS1523 (mice subjected to stroke)	size of the brain infarction (TTC staining) (mice subjected to stroke; [3])	size of the brain infarction (TTC staining) (mice subjected to stroke; 100 ul of 100 uM ip within 30 minutes of clot formation)	efficacy in the mouse photothrombotic stroke model (mice subjected to stroke)
CSc1nc(N)c2ncn([C@H]3[C@H](O)[C@H](O)[C@]4(CO)C[C@H]34)c2n1 [MRS4322]	significantly lower; also recorded: decreased	significantly reduced	significant efficacy	not reduced; also recorded: reversed by MRS1523	significantly reduced; also recorded: reduced the effects of stroke infarction	significantly reduced	significant efficacy
CNC(=O)[C@H]1O[C@@H](n2cnc3c(NCc4cccc(I)c4)nc(Cl)nc32)[C@H](O)[C@@H]1O [Cl-IB-MECA, 2-Chloro-N^6-(3-iodobenzyl)-adenosine-5′-N-methyluronamide, reference compound]	–	–	weakly active	–	–	–	inactive
CSc1nc(N)c2ncn([C@H]3[C@H](O)[C@H](O)[C@]4(COP(=O)(O)OP(=O)(O)O)C[C@H]34)c2n1 [MRS2365]	significantly lower; also recorded: decreased	–	–	not reduced	significantly reduced	–	–
